# Biological target: T1, HLA-B*57:01 (Homo sapiens, UniProt P01889, D201E/D98Y/E176V/E187L/E204Q/E69M/E70A/G107R/I90N/K202T/L105A/L119I/N104I/N87E/Q89R/Q94S/R106L/R155S/R180L/R86G/S101N/S121V/S35A/S48A/T118I/V36M/Y140S/Y91M)
# Assay: LC-MRM-MS quantitation of HLA ligands and co-purified abacavir from abacavir treated C1R.B*57:01 cells
# Assay type: cell-based
# Conditions: C1R.B*57:01, 35 µM abacavir 0-16 h or constant; linear regression of normalised abundance, three replicates
row,Substance,Category of abacavir impact on peptide abundance in the immunopeptidome
1,LSSPVTKSF,minimally impacted by abacavir
2,ITKTVVENI [HLA-B*57:01 ligand],Minimal
3,NTVELRVKI [non-labelled HLA-B*57:01 ligand],Dependent
4,KTIKLWNTL [HLA-B*57:01 ligand derived from RACK1],"abacavir facilitated (abacavir facilitated (slope > 0.02, abundance > 0 at t = 0 in at least two of three replicates))"
5,LTTKLTNTNI [non-labelled HLA-B*57:01 ligand],Dependent
6,ATFKGIVRAI [non-labelled HLA-B*57:01 ligand],Dependent
7,KVVDVVRNL [HLA-B*57:01 ligand derived from MX1],abacavir inhibited (abacavir inhibited (slope < −0.02))

# Same assay, conditions: LC-MRM-MS detection; classification of the peptide based on abacavir dependency
row,Substance,Abacavir dependence
1,KSIARVLTV,Dependent
2,VSAKEKYYVW,Minimal
3,LSSPVTKSF,Minimal
4,FSHRIYVAY,Minimal
5,ITKTVVENI [HLA-B*57:01 ligand],Minimal
6,NTVELRVKI [non-labelled HLA-B*57:01 ligand],Dependent
7,KTIKLWNTL [HLA-B*57:01 ligand derived from RACK1],Facilitated
8,VSVKDIQAHL,Dependent
9,VTTDIQVKV,Dependent
10,KSIFVFTHV,Dependent
11,ITNADSATRLL,Inhibited
12,RVLPPSHRVTW,Minimal
13,LTTKLTNTNI [non-labelled HLA-B*57:01 ligand],Dependent
14,TSQAGLFRLW,Minimal
15,ATFKGIVRAI [non-labelled HLA-B*57:01 ligand],Dependent
16,KVVDVVRNL [HLA-B*57:01 ligand derived from MX1],Inhibited
17,ASSSQIIHI,Dependent
18,VTHSVRIGF,Inhibited
19,GTYQDVGSLNI,Dependent
20,HSTDRVVLI,Dependent
21,KSYELPDGQVI,Facilitated
22,MTAGVDGHSW,Minimal
23,VTYPAKAKGTFI,Dependent
24,KTAGYPNVNI,Dependent
25,TTWKPLNPNSW,Minimal
26,KIADFGWSV,Dependent
27,RVAQLEQVYI,Dependent

# Same assay, conditions: linear regression of LC-MRM-MS peptide abundance over abacavir treatment time
row,Substance,Linear regression slope
1,KSIARVLTV,0.0347
2,VSAKEKYYVW,-0.0125
3,LSSPVTKSF,0.0147
4,FSHRIYVAY,0.0098
5,ITKTVVENI [HLA-B*57:01 ligand],-0.0036
6,NTVELRVKI [non-labelled HLA-B*57:01 ligand],0.0281
7,KTIKLWNTL [HLA-B*57:01 ligand derived from RACK1],0.0224
8,TFDDIVHSF,0.0142
9,VSVKDIQAHL,0.0241
10,VTTDIQVKV,0.0428
11,KSIFVFTHV,0.0498
12,ITNADSATRLL,-0.0254
13,RVLPPSHRVTW,0.0197
14,LTTKLTNTNI [non-labelled HLA-B*57:01 ligand],0.0544
15,TSQAGLFRLW,0.0067
16,ATFKGIVRAI [non-labelled HLA-B*57:01 ligand],0.0504
17,KVVDVVRNL [HLA-B*57:01 ligand derived from MX1],-0.0432
18,ASSSQIIHI,0.0446
19,VTHSVRIGF,-0.0410
20,GTYQDVGSLNI,0.0429
21,HSTDRVVLI,0.0350
22,KSYELPDGQVI,0.0297
23,MTAGVDGHSW,-0.0056
24,VTYPAKAKGTFI,0.0340
25,KTAGYPNVNI,0.0509
26,TTWKPLNPNSW,0.0009
27,KIADFGWSV,0.0283
28,RVAQLEQVYI,0.0208

# Biological target: T2, HLA-B*57:01fos (Homo sapiens, UniProt P01889, D201E/D98Y/E176V/E187L/E204Q/E69M/E70A/G107R/I90N/K202T/L105A/L119I/N104I/N87E/Q89R/Q94S/R106L/R155S/R180L/R86G/S101N/S121V/S35A/S48A/T118I/V36M/Y140S/Y91M)
# T2 construct: Fos leucine zipper (C); made in house
# Assay: Fluorescence polarisation association rate measurements
# Assay type: binding
# Conditions: 60 µM abacavir, fluorescence polarisation, 25°C
# Description: Peptide loaded HLA-B*57:01fos complexes were obtained as described ([50]) by refolding solubilised inclusion bodies of HLA-B*57:01fos heavy chains with human β 2m and UV-labile HLA-B57-conditional peptide ligand.
# Fluorescence polarisation measurements were taken using a SpectraMax i3x Multi-Mode Microplate Reader (Molecular Devices) with rhodamine detection cartridge. All experiments were conducted at 25°C and used PBS supplemented with 0.5 mg/ml bovine-gamma-globulin (Sigma), and a 20 fold molar excess of human β 2m (Fitzgerald) in a volume of 60 µl. Binding of TAMRA-labelled peptides is reported in millipolarisation units (mP) and is obtained from the equation mP = 1,000 × (S – G × P)/(S + G × P), where S and P are background subtracted fluorescence count rates (S = polarisation emission filter is parallel to the excitation filter; P = polarisation emission filter is perpendicular to the excitation filter) and G (grating) is an instrument and assay dependent factor.
# Peptide-receptive HLA-B*57:01fos were obtained by exposing HLA-B*57:01fos complexes loaded with UV labile conditional peptide ligand to ~360 nm light for 20 min at 4°C (“UV exposed” hereafter). The binding of fluorescent peptides to UV exposed HLA-B*57:01fos was monitored in the absence or presence of excess (60 µM) abacavir or tapasin-jun or tapasin-jun ERp57 C60A conjugate. […] Most experiments used 0.55 µM HLA-B*57:01fos molecules, but a minority of experiments involved different preparations of HLA-B*57:01fos which required higher concentrations of HLA-B*57:01fos, up to a maximum of 3.18 µM HLA-B*57:01fos, to achieve equivalent polarisation levels.
row,Substance,Effect of abacavir on binding of fluorescent peptide to HLA-B*57:01fos
1,ITTKAISRW [canonical peptide ligand of HLA-B*57:01],enhanced the binding

# Same assay, conditions: tapasin-jun or tapasin-jun ERp57 C60A conjugate, fluorescence polarisation, 25°C
row,Substance,Effect of tapasin on binding of fluorescent peptide to HLA-B*57:01fos
1,LTTK*LTNTNI,did not affect the binding

# Biological target: T1, HLA-B*57:01
# Assay: not given
# Set-up: method as in Illing et al., Nature 2012
# Conditions: abacavir treated cells; ref Illing et al., Nature 2012; cited from earlier work
row,Substance,"HLA-B*57:01 previous observation by LC-MS/MS, Abacavir treated"
1,KSIARVLTV,# (# (> 5% FDR))
2,VSAKEKYYVW,+ (+ (< 5% FDR))
3,LSSPVTKSF,+ (+ (< 5% FDR))
4,FSHRIYVAY,+ (+ (< 5% FDR))
5,ITKTVVENI [HLA-B*57:01 ligand],+ (+ (< 5% FDR))
6,NTVELRVKI [non-labelled HLA-B*57:01 ligand],+ (+ (< 5% FDR))
7,KTIKLWNTL [HLA-B*57:01 ligand derived from RACK1],+ (+ (< 5% FDR))
8,TFDDIVHSF,+ (+ (< 5% FDR))
9,VSVKDIQAHL,+ (+ (< 5% FDR))
10,VTTDIQVKV,+ (+ (< 5% FDR))
11,KSIFVFTHV,+ (+ (< 5% FDR))
12,RVLPPSHRVTW,+ (+ (< 5% FDR))
13,LTTKLTNTNI [non-labelled HLA-B*57:01 ligand],+ (+ (< 5% FDR))
14,TSQAGLFRLW,+ (+ (< 5% FDR))
15,ATFKGIVRAI [non-labelled HLA-B*57:01 ligand],+ (+ (< 5% FDR))
16,KVVDVVRNL [HLA-B*57:01 ligand derived from MX1],# (# (> 5% FDR))
17,ASSSQIIHI,+ (+ (< 5% FDR))
18,VTHSVRIGF,+ (+ (< 5% FDR))
19,GTYQDVGSLNI,+ (+ (< 5% FDR))
20,HSTDRVVLI,# (# (> 5% FDR))
21,KSYELPDGQVI,+ (+ (< 5% FDR))
22,MTAGVDGHSW,+ (+ (< 5% FDR))
23,VTYPAKAKGTFI,+ (+ (< 5% FDR))
24,KTAGYPNVNI,+ (+ (< 5% FDR))
25,TTWKPLNPNSW,+ (+ (< 5% FDR))
26,KIADFGWSV,+ (+ (< 5% FDR))
27,RVAQLEQVYI,+ (+ (< 5% FDR))

# Same assay, conditions: untreated cells; ref Illing et al., Nature 2012; cited from earlier work
row,Substance,"HLA-B*57:01 previous observation by LC-MS/MS, Untreated"
1,VSAKEKYYVW,+ (+ (< 5% FDR))
2,LSSPVTKSF,+ (+ (< 5% FDR))
3,FSHRIYVAY,+ (+ (< 5% FDR))
4,ITKTVVENI [HLA-B*57:01 ligand],+ (+ (< 5% FDR))
5,KTIKLWNTL [HLA-B*57:01 ligand derived from RACK1],+ (+ (< 5% FDR))
6,TFDDIVHSF,+ (+ (< 5% FDR))
7,VTTDIQVKV,+ (+ (< 5% FDR))
8,ITNADSATRLL,+ (+ (< 5% FDR))
9,RVLPPSHRVTW,+ (+ (< 5% FDR))
10,TSQAGLFRLW,+ (+ (< 5% FDR))
11,KVVDVVRNL [HLA-B*57:01 ligand derived from MX1],+ (+ (< 5% FDR))
12,VTHSVRIGF,+ (+ (< 5% FDR))
13,KSYELPDGQVI,# (# (> 5% FDR))
14,MTAGVDGHSW,+ (+ (< 5% FDR))
15,KTAGYPNVNI,# (# (> 5% FDR))
16,TTWKPLNPNSW,+ (+ (< 5% FDR))

# From article PMC8170132, “Kinetics of Abacavir-Induced Remodelling of the Major Histocompatibility Complex Class I Peptide Repertoire” (Frontiers in Immunology, 2021)
